Calls of active or inactive are those of the source. The rule behind the calls is not given here.
Experiments:
CYP1A2 = molecular target: T1, CYP1A2 (Homo sapiens, UniProt P05177); assay: Inhibition of CYP1A2 (unknown origin) at 10 uM relative to control; assay type: ADME
T1 sequence (P05177 whole entry): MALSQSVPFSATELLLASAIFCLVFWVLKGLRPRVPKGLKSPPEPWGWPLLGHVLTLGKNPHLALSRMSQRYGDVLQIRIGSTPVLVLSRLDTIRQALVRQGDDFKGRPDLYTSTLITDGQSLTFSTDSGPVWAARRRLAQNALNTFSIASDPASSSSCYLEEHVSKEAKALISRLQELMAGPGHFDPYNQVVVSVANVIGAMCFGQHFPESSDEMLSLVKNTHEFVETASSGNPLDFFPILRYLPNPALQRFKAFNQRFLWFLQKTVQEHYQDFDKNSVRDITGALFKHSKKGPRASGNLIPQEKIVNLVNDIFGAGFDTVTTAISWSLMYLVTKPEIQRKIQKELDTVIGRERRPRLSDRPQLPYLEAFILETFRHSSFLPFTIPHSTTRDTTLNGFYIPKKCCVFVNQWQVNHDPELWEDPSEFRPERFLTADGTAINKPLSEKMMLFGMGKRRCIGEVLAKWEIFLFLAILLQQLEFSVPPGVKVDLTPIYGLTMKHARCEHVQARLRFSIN

CYP3A4 = CYP3A4 (Homo sapiens, UniProt P08684); assay: Inhibition of CYP3A4 (unknown origin) at 10 uM relative to control; assay type: ADME
[1] = Oral bioavailability in mouse at 10 mg/kg; assay type: ADME, organism-based; conditions: in vivo
Focal adhesion kinase 1 [2] = molecular target: T2, Focal adhesion kinase 1 (Homo sapiens, UniProt Q05397); assay: Inhibition of FAK (unknown origin)
Target sequence in this assay (Q05397 whole entry): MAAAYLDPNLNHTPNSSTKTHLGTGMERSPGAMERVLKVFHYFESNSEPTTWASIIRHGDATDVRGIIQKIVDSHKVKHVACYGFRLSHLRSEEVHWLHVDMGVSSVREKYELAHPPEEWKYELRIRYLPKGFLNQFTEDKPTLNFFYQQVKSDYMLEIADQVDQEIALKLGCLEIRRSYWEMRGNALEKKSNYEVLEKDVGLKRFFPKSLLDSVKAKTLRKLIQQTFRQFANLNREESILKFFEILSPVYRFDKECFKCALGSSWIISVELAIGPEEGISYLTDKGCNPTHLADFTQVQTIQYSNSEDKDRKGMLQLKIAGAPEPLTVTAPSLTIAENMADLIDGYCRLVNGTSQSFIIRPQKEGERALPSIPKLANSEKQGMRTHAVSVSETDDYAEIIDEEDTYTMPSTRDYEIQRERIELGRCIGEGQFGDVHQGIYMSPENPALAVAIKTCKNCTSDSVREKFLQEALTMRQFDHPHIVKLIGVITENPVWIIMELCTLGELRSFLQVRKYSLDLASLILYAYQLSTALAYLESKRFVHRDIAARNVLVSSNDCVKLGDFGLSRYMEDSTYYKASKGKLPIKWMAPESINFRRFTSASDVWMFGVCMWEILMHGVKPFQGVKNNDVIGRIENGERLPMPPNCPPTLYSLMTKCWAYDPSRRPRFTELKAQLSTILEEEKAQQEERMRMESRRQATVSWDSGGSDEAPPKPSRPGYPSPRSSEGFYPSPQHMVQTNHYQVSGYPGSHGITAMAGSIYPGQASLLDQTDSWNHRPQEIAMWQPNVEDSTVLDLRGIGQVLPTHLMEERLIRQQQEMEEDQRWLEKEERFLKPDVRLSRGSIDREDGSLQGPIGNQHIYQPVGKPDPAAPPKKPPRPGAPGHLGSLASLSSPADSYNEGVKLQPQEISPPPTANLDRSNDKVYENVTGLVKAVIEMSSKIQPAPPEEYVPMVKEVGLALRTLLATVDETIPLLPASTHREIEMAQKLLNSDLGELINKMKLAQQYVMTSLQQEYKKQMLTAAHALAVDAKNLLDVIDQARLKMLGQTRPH

Focal adhesion kinase 1 [3] = molecular target: T2, Focal adhesion kinase 1; assay: Inhibition of FAK autophosphorylation at Y925 in human MDA-MB-231 cells at 5 uM incubated for 24 hrs by Western blot analysis; assay type: cell-based
Target sequence in this assay (Q05397 2-1052 limits assumed): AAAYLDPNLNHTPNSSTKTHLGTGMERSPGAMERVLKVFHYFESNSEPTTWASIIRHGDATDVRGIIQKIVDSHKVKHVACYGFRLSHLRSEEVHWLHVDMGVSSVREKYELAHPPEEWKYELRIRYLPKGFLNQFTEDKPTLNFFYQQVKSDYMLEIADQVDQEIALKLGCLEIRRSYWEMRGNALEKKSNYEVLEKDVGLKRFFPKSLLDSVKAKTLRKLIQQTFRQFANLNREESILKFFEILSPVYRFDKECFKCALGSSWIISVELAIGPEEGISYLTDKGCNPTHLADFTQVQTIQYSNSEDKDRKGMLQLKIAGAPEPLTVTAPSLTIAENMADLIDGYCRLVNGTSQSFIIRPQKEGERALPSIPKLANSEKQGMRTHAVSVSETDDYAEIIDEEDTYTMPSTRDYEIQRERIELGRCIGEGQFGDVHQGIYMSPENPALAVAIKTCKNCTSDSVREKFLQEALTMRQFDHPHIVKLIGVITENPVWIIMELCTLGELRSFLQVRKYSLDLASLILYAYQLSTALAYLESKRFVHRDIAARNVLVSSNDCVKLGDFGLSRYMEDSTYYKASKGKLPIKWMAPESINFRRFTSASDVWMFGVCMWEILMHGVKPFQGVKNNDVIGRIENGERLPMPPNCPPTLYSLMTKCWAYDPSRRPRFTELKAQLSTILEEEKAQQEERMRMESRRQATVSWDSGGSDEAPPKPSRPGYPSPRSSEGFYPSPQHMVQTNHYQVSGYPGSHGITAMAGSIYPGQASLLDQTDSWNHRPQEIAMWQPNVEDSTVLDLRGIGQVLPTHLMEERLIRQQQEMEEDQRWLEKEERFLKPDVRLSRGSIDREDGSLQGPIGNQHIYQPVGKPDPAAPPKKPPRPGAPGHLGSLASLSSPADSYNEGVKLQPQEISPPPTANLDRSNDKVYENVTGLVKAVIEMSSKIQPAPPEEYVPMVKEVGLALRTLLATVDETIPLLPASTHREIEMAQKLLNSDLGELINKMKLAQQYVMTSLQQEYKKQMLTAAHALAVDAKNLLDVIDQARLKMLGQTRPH

MDA-MB-231 [4] = assay: In vivo antitumor activity against human MDA-MB-231 cells xenografted in Balb/c mouse assessed as reduction in tumor mass at 40 to 70 mg/kg, po once daily measured for 16 days; assay type: functional, organism-based; conditions: dose 40-70 mg/kg, time 16.0 day
[5] = Toxicity in Balb/c mouse xenografted with human MDA-MB-231 cells assessed as change in body weight at 40 to 70 mg/kg, po once daily measured for 16 days; assay type: organism-based; conditions: in vivo, 384 h, dose 40-70 mg/kg, time 16 day
HCT-116 = assay: Antiinvasive activity in human HCT-116 cells assessed as suppression of invasion at 1 uM measured after 12 hrs by trans well experiment; assay type: functional
MDA-MB-231 [6] = assay: Disruption of focal adhesion of human MDA-MB-231 cells assessed as decrease in vinculin measured after 3 hrs by Alexa Fluor 488-conjugated Ab based fluorescence analysis; assay type: functional, cell-based; conditions: dose 1-10 µM
MDA-MB-231 [7] = assay: Antimetastatic activity against human MDA-MB-231 cells expressing firefly luciferase xenografted NSG orthotopic mouse model assessed as reduction in luminescence intensity at axillary lymph node at 70 mg/kg, po once daily measured for 2 weeks; assay type: functional, organism-based

Sequence of CYP3A4 (P08684 whole entry): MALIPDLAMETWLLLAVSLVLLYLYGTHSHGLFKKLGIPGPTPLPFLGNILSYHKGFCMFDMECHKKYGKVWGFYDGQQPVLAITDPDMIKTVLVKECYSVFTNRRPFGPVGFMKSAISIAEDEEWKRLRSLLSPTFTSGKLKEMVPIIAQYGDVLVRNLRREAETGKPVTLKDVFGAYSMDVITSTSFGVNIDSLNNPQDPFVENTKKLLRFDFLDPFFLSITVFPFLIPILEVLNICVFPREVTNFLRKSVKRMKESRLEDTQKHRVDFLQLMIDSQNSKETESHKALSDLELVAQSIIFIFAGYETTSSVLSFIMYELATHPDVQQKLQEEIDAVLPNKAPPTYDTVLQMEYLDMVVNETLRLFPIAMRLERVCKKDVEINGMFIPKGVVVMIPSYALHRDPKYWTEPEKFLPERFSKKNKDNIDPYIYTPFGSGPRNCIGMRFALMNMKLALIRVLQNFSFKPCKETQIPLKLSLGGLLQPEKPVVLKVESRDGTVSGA

For CCN1CCN(c2ccc(Nc3ncc4scc(-c5cccc(NS(C)(=O)=O)c5)c4n3)cc2)CC1, the inhibition at 10 µM (CYP1A2) was 89.2%, the inhibition at 10 µM (CYP3A4) was 71.9% and the bioavailability [1] was 15.8%. For the same compound, the IC50 (Focal adhesion kinase 1 [2]) was 9.7 nM, the inhibition (Focal adhesion kinase 1 [3]) was “Active” and the Activity (MDA-MB-231 [4]) was “Active”. For the same compound, the Activity [5] was “Non-Toxic”, the inhibition at 1 µM (HCT-116) was 50% and the Activity (MDA-MB-231 [6]) was “Active”. The Activity (MDA-MB-231 [7]) was “Active”.
